Experimental data as given in publication PMC6979073, “Control of glutamate release by complexes of adenosine and cannabinoid receptors” (BMC Biology, 2020).
Where two headings read alike, the source gives them in different places.

Key:
[1] = tested on: rat striatal synaptosomes; test: Depolarization-evoked glutamate release from striatal synaptosomes; type: cell-based; settings: for Evoked glutamate release, expressed as the difference in % of the control value: WIN55,212-2 0.1 μM, n = 6
CB1R [2] = tested on: CB1R; parameters: method as in PMID 16365309, PMID 1331766; settings: cited from earlier work
CB1R [3] = tested on: CB1R; parameters: method as in PMID 16365309, PMID 1331766; settings: cited from earlier work; remark: listed apart in the source
A2AR-CB1R heterotetramer = A2AR-CB1R heterotetramer (Homo sapiens, UniProt P21554+P29274)
A2AR-CB1R heteromer = A2AR-CB1R heteromer (Homo sapiens, UniProt P21554+P29274)
CB1R [4] = biological target: CB1R (Homo sapiens, UniProt P21554); settings: CP55940 200 nM; cells transfected with CB1R
[5] = PTX 10 ng/ml overnight or CTX 100 ng/ml 2 h

Sequence of A2AR-CB1R heterotetramer (P29274 whole entry): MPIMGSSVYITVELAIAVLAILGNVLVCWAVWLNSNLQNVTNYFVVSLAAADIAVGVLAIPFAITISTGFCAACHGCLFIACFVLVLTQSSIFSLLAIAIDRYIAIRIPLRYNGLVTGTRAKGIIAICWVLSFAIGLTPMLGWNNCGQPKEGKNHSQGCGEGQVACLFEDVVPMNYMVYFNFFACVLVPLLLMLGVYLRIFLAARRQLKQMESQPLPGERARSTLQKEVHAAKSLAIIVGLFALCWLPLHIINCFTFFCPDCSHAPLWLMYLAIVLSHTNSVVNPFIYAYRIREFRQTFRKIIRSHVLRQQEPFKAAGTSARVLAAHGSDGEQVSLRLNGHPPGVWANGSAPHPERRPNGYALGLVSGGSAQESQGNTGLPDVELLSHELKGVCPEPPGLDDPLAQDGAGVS
Sequence of A2AR-CB1R heterotetramer (P21554 whole entry): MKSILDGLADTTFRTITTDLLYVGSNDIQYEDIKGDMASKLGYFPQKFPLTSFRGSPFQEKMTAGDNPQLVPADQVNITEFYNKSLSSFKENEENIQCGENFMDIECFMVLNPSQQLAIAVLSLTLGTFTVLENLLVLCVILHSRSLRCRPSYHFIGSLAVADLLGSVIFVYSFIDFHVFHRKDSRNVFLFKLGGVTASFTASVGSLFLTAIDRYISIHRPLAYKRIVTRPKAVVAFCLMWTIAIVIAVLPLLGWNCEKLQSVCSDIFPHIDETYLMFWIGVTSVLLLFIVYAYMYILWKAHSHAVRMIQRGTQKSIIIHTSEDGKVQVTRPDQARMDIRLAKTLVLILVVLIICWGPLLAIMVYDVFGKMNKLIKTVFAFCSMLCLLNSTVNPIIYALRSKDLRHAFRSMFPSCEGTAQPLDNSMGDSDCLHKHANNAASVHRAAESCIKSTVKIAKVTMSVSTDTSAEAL
Sequence of A2AR-CB1R heteromer (P29274 whole entry): as the sequence (P29274 whole entry) above
Sequence of A2AR-CB1R heteromer (P21554 whole entry): as the sequence (P21554 whole entry) above
Sequence of CB1R (Homo sapiens, UniProt P21554) (P21554 whole entry): as above

Cc1c(C(=O)c2cccc3ccccc23)c2cccc3c2n1[C@H](CN1CCOCC1)CO3 [WIN55,212-2]
Evoked glutamate release, expressed as the difference in % of the control value ([1]; synaptosomes incubated 4 h at 4 °C with PTX (2 μg/ml)): 114.6% ± 6.8
Evoked glutamate release, expressed as the difference in % of the control value ([1]; toxin-naïve synaptosomes): 82.9% ± 3.6
Further inhibition of evoked glutamate release in the presence of SCH58261 (10 μM) ([1]; WIN55212-2 0.3 μM): could not be further inhibited
EC50 ([1]; WIN55,212-2 alone, 30 mM KCl, read-out: EC50 of inhibition of evoked glutamate release): 5.5 nM
Maximal effect on evoked glutamate release ([1]; at 0.03 μM): 77.0 ± 3.0 % of DMSO control
Potency relative to CP55940 at eliciting Gq-dependent intracellular calcium increase (CB1R [2]): more
Potency relative to CP55940 at inhibiting forskolin-induced cAMP production (CB1R [3]): less potent

pertussis toxin [PTX]
Effect on WIN55,212-2 (0.1 μM) inhibition of glutamate release ([1]; PTX 2 μg/ml, 4 h at 4 °C): fully prevented this inhibition
Effect on CGS21680-induced cAMP increase (A2AR-CB1R heterotetramer; [5]): also blocked
Effect on CP55940-induced cAMP decrease (A2AR-CB1R heterotetramer; [5]): blockade

CCCCCCC(C)(C)c1ccc([C@@H]2C[C@H](O)CC[C@H]2CCCO)c(O)c1 [CP55940]
Effect on the concentration-response curve of NECA (Gs activation) (A2AR-CB1R heteromer; CP55940 10 μM, Gαs-YFP): did not produce a significant shift
Concentration-response curve of ligand-induced changes in BRET: G protein coupling (A2AR-CB1R heteromer; cells co-transfected with either Gαs-, Gαi1- or Gαq-YFP): could only be obtained when the cells were transfected with Gαi-YFP
Effect on CGS21680-mediated increase in cAMP (A2AR-CB1R heterotetramer): counteracted CGS21680-mediated increase in cAMP
Effect on cAMP formation induced by forskolin (500 nM) (CB1R [4]): decreased cAMP formation

CCNC(=O)[C@H]1O[C@@H](n2cnc3c(N)nc(NCCc4ccc(CCC(=O)O)cc4)nc32)[C@H](O)[C@@H]1O [CGS21680]
Effect on the inhibition of glutamate release by 0.01 and 0.03 μM of WIN55,212-2 ([1]; CGS21680 0.03 μM or SCH58261 0.1 μM): fully prevented
Effect of co-application on the effect of WIN55,212-2 on glutamate release ([1]; CGS21680 0.03 μM plus SCH58261 0.1 μM): did not significantly modify

Nc1nc2c(cnn2CCc2ccccc2)c2nc(-c3ccco3)nn12 [SCH58261]
Effect of co-application on the effect of WIN55,212-2 on glutamate release [1]: did not significantly modify
Effect on the concentration-response inhibitory curve of WIN55,212-2 [1]: shifted to the right
Effect on the inhibition of glutamate release by 0.01 and 0.03 μM of WIN55,212-2 [1]: fully prevented
Effect on evoked glutamate release ([1]; SCH58261 10 μM): significantly inhibited the evoked glutamate release

cholera toxin [CTX]
Effect on CGS21680-induced cAMP increase (A2AR-CB1R heterotetramer): blockade
Effect on CP55940-induced cAMP decrease (A2AR-CB1R heterotetramer): also blocked
